Experimental data as given in publication PMC8951032, “Study of Biological Activities and ADMET-Related Properties of Novel Chlorinated N-arylcinnamamides” (International Journal of Molecular Sciences, 2022).
Converted amounts (≈) assume the structure as drawn. Read-outs that look alike come from different tables or passages of the source.

Experiments:
[1] = Lipophilicity determination by RP-HPLC (log k, log D); assay type: physicochemical; details: for log k: MeOH 72%/H2O 28%; for log D6.5: MeOH 72%/acetate buffered saline pH 6.5; for log D7.4: MeOH 72%/acetate buffered saline pH 7.4
Method: In addition to the mentioned ADME profile, it is responsible for interactions with biological targets. Lipophilicity is recognized as one of the most important parameters influencing ADME and bioactivity and is also part, e.g., of Lipinski’s Rule of Five (Ro5). This thermodynamic parameter describing the molecule’s affinity for an aqueous or relatively lipophilic environment can be characterized by the logarithm of the partition coefficient (log P). In this study, lipophilicity was measured by reversed-phase high-performance liquid chromatography (RP-HPLC) under isocratic conditions with methanol as the organic modifier in the aqueous mobile phase and the logarithm of the capacity factor k was calculated, which is used as the lipophilicity index converted to the log P scale. In addition to the log k values, the logarithm of the distribution coefficient DpH at pH 6.5 and 7.4 was determined to clarify the behavior of the compounds under physiological conditions and possible ionization. Instead of water, a buffer of suitable pH was used as part of the mobile phase. In addition to the above-mentioned experimental methods, commercially available ChemBioDraw Ultra 13.0 and ACD/Percepta ver. 2012 programs were used to calculate the lipophilicity values of all prepared compounds.
A HPLC separation module Waters Alliance 2695 XE equipped with a Waters Dual Absorbance Detector 2486 (Waters Corp., Milford, MA, USA) was used. A chromatographic column Symmetry® C18 5 μm, 4.6 × 250 mm, Part No. W21751W016 (Waters Corp., Milford, MA, USA) was used. The HPLC separation process was monitored by Empower® 3 Chromatography Manager Software (Waters Corp.). Isocratic elution by a mixture of MeOH p.a. (72%) and H2O-HPLC Mili-Q grade (28%) as a mobile phase was used for the determination of capacity factor k. Isocratic elution by a mixture of MeOH p.a. (72%) and acetate buffered saline (pH 7.4 and pH 6.5) (28%) as a mobile phase was used for the determination of distribution coefficient expressed as D7.4 and D6.5. The total flow of the column was 1.0 mL/min, injection 20 μL, column temperature 40 °C, and sample temperature 10 °C. The detection wavelength of 210 nm was chosen. A KI methanolic solution was used for the determination of the dead times (tD). Retention times (tR) were measured in minutes. The capacity factors k were calculated according to the formula k = (tR − tD)/tD, where tR is the retention time of the solute, and tD is the dead time obtained using an unretained analyte. The distribution coefficients DpH were calculated according to the formula DpH = (tR − tD)/tD. Each experiment was repeated three times.

[2] = system: S. aureus, MRSA, E. faecalis, VRE, M. smegmatis, M. marinum; test: In vitro antimicrobial screening, all tested strains; assay type: cell-based; details: antibacterial/antimycobacterial screening
[3] = system: Staphylococcus aureus ATCC 29213; test: In vitro antistaphylococcal activity, microtitration broth MIC; assay type: cell-based; details: Staphylococcus aureus
[4] = system: methicillin-resistant S. aureus (MRSA) 63718; test: as above; assay type: cell-based; details: Staphylococcus aureus
[5] = system: methicillin-resistant S. aureus SA 630; test: as above; assay type: cell-based; details: Staphylococcus aureus
[6] = system: methicillin-resistant S. aureus SA 3202; test: as above; assay type: cell-based; details: Staphylococcus aureus
[7] = system: vancomycin-resistant E. faecalis (VRE) 725B; test: In vitro antienterococcal activity, microtitration broth MIC; assay type: cell-based, Enterococcus faecalis; details: 24 h

| log k [1] | log D6.5 [1] | log D7.4 [1] | MIC ([3]; ATCC29213, 24 h, S. aureus ATCC 29213, read-out: log(1/MIC [M]) SA (converted)) [M] | MIC ([3]; ATCC29213, S. aureus ATCC 29213, 24 h, read-out: MIC SA) [M] | MIC ([4]; 24 h, MRSA 63718, read-out: log(1/MIC [M]) MRSA1 (converted)) [M] | MIC ([4]; MRSA 63718, 24 h, read-out: MIC MRSA1) [M] | MIC ([5]; 24 h, MRSA SA 630, read-out: log(1/MIC [M]) MRSA2 (converted)) [M] | MIC ([5]; MRSA SA 630, 24 h, read-out: MIC MRSA2) [M] | MIC ([6]; 24 h, MRSA SA 3202, read-out: log(1/MIC [M]) MRSA3 (converted)) [M] | MIC ([6]; MRSA SA 3202, 24 h, read-out: MIC MRSA3) [M] | MIC ([7]; read-out: MIC VRE3) [M] | MIC ([7]; read-out: log(1/MIC [M]) VRE3 (converted)) [M] | SMILES | antimicrobial activity (in words) [2] |
| --- | --- | --- | --- | --- | --- | --- | --- | --- | --- | --- | --- | --- | --- | --- |
| 1.0278 | 1.0236 | 1.0284 | – | – | – | – | – | – | – | – | – | – | O=C(/C=C/c1ccc(Cl)cc1)Nc1ccc(OC(F)(F)F)cc1Br [1r, (2E)-N-[2-Bromo-4-(trifluoromethoxy)phenyl]-3-(4-chlorophenyl)prop-2-enamide] | total loss of any effect |
| 1.2065 | 1.2373 | 1.2178 | – | – | – | – | – | – | – | – | – | – | O=C(/C=C/c1ccc(Cl)c(Cl)c1)Nc1ccc(OC(F)(F)F)cc1Br [2r, (2E)-N-[2-Bromo-4-(trifluoromethoxy)phenyl]-3-(3,4-dichlorophenyl)prop-2-enamide] | total loss of any effect |
| – | – | – | 5.75e-06 (≈ 2.01 µg/mL) | 5.72e-06 (≈ 2 µg/mL) | 4.57e-05 (≈ 16 µg/mL) | 4.58e-05 (≈ 16 µg/mL) | > 4.57e-05 | > 4.58e-05 | > 4.57e-05 | > 4.58e-05 | 5.72e-06 (≈ 2 µg/mL) | 5.75e-06 (≈ 2.01 µg/mL) | CC1(C)S[C@@H]2[C@H](NC(=O)[C@H](N)c3ccccc3)C(=O)N2[C@H]1C(=O)O [AMP, ampicillin, reference compound] | – |
